Source: patent US5298521A, “1,5-diphenyl-3-pyrazolylalkyl-N-hydroxydithiocaramates, compositions and use” (Ortho Pharmaceutical Corporation, priority 1993, dated 1994)
Like-named read-outs stand apart in the source and are kept apart here.

What was measured:
CO = experiment: Ex vivo eicosanoid synthesis in dog whole blood, CO (prostaglandin F2α or TxB2) (Procedure IV); details: Canis lupus familiaris, oral, read-out: PROC. IV % INHIB/HOURS CO; for inhibition at 5 mg/kg: 5 MPK
Method: (§1) Ex Vivo eicosanoid synthesis in dog whole blood. Adult beagle or mongrel dogs (10-15 kg) of either sex were fasted overnight prior to the initiation of each experiment. The forelimb was clipped and swabbed with an alcohol prep (70% isopropanol). Blood was drawn by venipuncture into syringes containing lithium heparin (Starstead, Newton NC) immediately prior to administration of compound or vehicle and then at various intervals following dosing. The test compound was administered orally as a suspension in 0.5% methocel. At various times after dosing, blood samples were drawn and placed on an electric rocker platform to assure complete and continuous mixing. White blood cell (wbc) counts were performed using a Sysmex hematology analyzer. This was done in an effort to normalize the number of leukocytes to be stimulated with calcium ionophore. A 1.0 mL aliquot of whole blood was challenged with 50 μL of a 2.6×10^-5 M solution of calcium ionophore A23187 (Calbiochem, La Jolla, CA) prepared in DMSO and diluted in HBSS. After a 15 minute incubation at 37° C., the reaction was stopped by placing the samples in an ice bath (4° C.) for 5 minutes and then centrifuged at 11,000×g for 5 minutes to separate the plasma fraction from blood cells. The plasma fraction was removed, diluted in an appropriate buffer, and analyzed for the presence of LTB4 and prostaglandin F2α or TxB2 by standard RIA techniques. […]

[1] = target: T1, 5-LO in intact RBL-1 cells (Rattus norvegicus, UniProt P12527); experiment: 5-LO inhibition in intact RBL-1 cells (Procedure III); assay type: cell-based; details: read-out: PROC. III IC50 5-LO
T1 construct: endogenous in cells; host or cells: intact RBL-1 cells
T1 sequence (P12527 1-673): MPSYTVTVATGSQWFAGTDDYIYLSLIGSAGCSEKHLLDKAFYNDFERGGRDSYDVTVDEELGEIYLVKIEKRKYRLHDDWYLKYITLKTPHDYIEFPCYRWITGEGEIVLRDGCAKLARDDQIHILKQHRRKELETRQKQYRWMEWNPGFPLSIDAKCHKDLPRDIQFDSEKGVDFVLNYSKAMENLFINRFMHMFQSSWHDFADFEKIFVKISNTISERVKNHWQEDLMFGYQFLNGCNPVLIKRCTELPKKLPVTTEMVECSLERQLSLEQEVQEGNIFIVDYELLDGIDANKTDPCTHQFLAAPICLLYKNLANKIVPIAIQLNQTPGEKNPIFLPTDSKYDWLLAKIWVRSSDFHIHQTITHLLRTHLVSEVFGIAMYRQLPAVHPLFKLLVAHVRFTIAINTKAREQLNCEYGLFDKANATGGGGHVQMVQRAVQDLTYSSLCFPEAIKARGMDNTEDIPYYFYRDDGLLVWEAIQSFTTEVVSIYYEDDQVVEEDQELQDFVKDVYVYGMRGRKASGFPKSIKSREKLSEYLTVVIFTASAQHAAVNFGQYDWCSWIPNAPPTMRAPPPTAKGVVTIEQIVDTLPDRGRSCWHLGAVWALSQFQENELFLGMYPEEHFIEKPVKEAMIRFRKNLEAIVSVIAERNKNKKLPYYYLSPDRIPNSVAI
Method: (§2) The ability to inhibit 5-LO and CO in intact RBL-1 cells was also evaluated. RBL-1 cells were maintained in culture in minimal essential medium (Bio*Whittaker, Walkersville, MD), containing 12.5% fetal calf serum, 10 mg/mL streptomycin, 10 I.U./mL penicillin G, […] gentamycin and 2 mM L-glutamine (Bio*Whittaker, Walkersville, MD). Cells were collected by centrifugation, washed once in HBSS, and resuspended at a concentration of 1×10^5 cells/mL. Cells were incubated in the presence of vehicle or drug then centrifuged at 800×g for 10 minutes at 4° C. The supernatant was removed by aspiration and the cells were resuspended in 0.5 mL of HBSS. The reaction was started by the addition of 20 μg/mL of calcium ionophore A-23187 (mixed calcium and magnesium salts, Calbiochem, La Jolla CA) and allowed to proceed for 15 minutes, then stopped by plunging the tubes into a slush ice bath. The conversion of AA to 5-LO products was initiated by the addition of 10 μL (50 uCi) of 1-^14 C-AA. Products were isolated by acidification and extraction, followed by thin layer chromatography analysis as described above. Radioactive areas corresponding to authentic 5-LO and CO products were quantitated by the Bioscan 2000 Imaging System.

CO in intact RBL-1 cells = experiment: CO inhibition in intact RBL-1 cells (Procedure III); assay type: cell-based, rat; details: superscript = number of experiments, read-out: PROC. III IC50 CO
Method: as §2

5-LO = experiment: Ex vivo eicosanoid synthesis in dog whole blood, 5-LO (LTB4) (Procedure IV); details: Canis lupus familiaris, oral, read-out: PROC. IV % INHIB/HOURS 5-LO; for inhibition at 5 mg/kg: 5 MPK, 6 hours
Method: as §1

[2] = target: T2, RBL-1 cell 5-lipoxygenase (Rattus norvegicus, UniProt P12527); experiment: RBL-1 cell 5-lipoxygenase, cell homogenate supernatant (Procedure II); assay type: biochemical; details: RBL-1 homogenate; for inhibition at 3 µM: read-out: PROC. II % INHIBITION 5-LO; for IC50: read-out: PROC. II IC50 5-LO
T2 construct: the supernatant was saved as the source of enzymes; endogenous in cells; host or cells: RBL-1 rat basophilic leukemia cells, homogenate supernatant
T2 sequence (P12527 1-673): T1 sequence (P12527 1-673)
Method: RBL-1 cell 5-lipoxygenase and cyclooxygenase
Rat basophilic leukemia cells (RBL-1; 5×10^7 viable cells/mL) were disrupted by homogenization on ice (four 20 sec bursts) with a Brinkman polytron. Complete cell breakage was verified microscopically. The homogenate was then centrifuged at 10,000×g for 48 minutes at 4° C. The pellet was discarded and the supernatant was saved as the source of enzymes. The supernatant was pre-incubated for five minutes at 37° C. in the presence of 2 mM of CaCl2 and compound or vehicle (1% DMSO). The conversion of AA into 5-LO products was initiated by adding 10 μL (50 μCi) of 1-^14 C-AA to each tube and incubated at 37° C. for 20 minutes. The reaction was stopped by adjusting the pH of each sample to 3 to 3.5 with 2M formic acid. Samples were extracted with three volumes of chloroform to isolate the products of 5-LO formed during the reaction. Fractions were dried under nitrogen, then resuspended in 40 μL of chloroform and spotted onto silica gel HL plates. The plates were developed in A-9 solvent. The dried plates were analyzed using a Bioscan Imaging TLC scanner to determine the percentage of radiolabelled AA converted to 5-HETE in each sample.

SMILES	IC50 [1] [µM]	IC50 (CO in intact RBL-1 cells) [µM]	inhibition at 3 µM [2] [%]	IC50 [2] [µM]	inhibition at 1 mg/kg (CO; 1 MPK, 2 hours) [%]	inhibition at 1 mg/kg (5-LO; 1 MPK, 2 hours) [%]	inhibition at 5 mg/kg (CO; 24 hours) [%]	inhibition at 5 mg/kg (5-LO) [%]	inhibition at 5 mg/kg (CO; 6 hours) [%]
COc1ccc(-n2nc(CSC(=S)N(O)C(C)C)cc2-c2ccc(Cl)cc2)cc1 [1-B]	7	1.4	100	0.57	77	36			
COc1ccc(-n2nc(CSC(=S)N(O)C(C)C)c(Cl)c2-c2ccc(Cl)cc2)cc1 [1-D]			70	0.07			32	2	
COc1ccc(-n2nc(CSC(=S)N(O)C(C)C)cc2-c2ccc(C)cc2)cc1 [1-G]	5.6	0.18	79	0.02					

Further lines, with some results ahead:

IC50 [1] [µM]	IC50 (CO in intact RBL-1 cells) [µM]	inhibition at 3 µM [2] [%]	IC50 [2] [µM]	SMILES	inhibition at 1 mg/kg (CO; 1 MPK, 2 hours) [%]	inhibition at 1 mg/kg (5-LO; 1 MPK, 2 hours) [%]	inhibition at 5 mg/kg (CO; 24 hours) [%]	inhibition at 5 mg/kg (5-LO) [%]	inhibition at 5 mg/kg (CO; 6 hours) [%]
0.24	2.4	91		COc1ccc(-n2nc(CSC(=S)N(C)O)c(Cl)c2-c2ccc(Cl)cc2)cc1 [1-C]					
2.8	6.5	73	0.04	COc1ccc(-n2nc(CSC(=S)N(O)C(C)C)c(Br)c2-c2ccc(Cl)cc2)cc1 [1-E]				41	31
0.67	1.6	91		COc1ccc(-n2nc(CSC(=S)N(C)O)c(Cl)c2-c2ccc(C)cc2)cc1 [1-H]					
